# How the values were obtained:
# L1210A tumors = assay: Tyrosine kinase inhibitor/folate-FITC combination therapy in L1210A tumor-bearing mice; format: in vivo, mouse (DBA/2); settings: for tumor volume plot: position of the line at the longest duration (PBS control topmost): FIG. 16; for tumor volume plot: position of the line at the longest duration (PBS control second line from the bottom): FIG. 4
# Description: The effect of the combination therapy strategy of Example 1 was evaluated on an alternative tumor type. The […] lymphocytic leukemia cell line was selected due to its high FR expression levels and its ability to grow in immune competent mice. Female DBA/2 mice (purchased from Harlan Laboratories in Indianapolis, Ind.) were used in this model. Mice were injected subcutaneously with 1×10^6 cells suspended in PBS on the left flank. […] Doses of 500 nmols/Kg of folate-FITC in phosphate buffered saline (PBS) by intraperitoneal injection were used in the folate-FITC alone treatment and the combination treatment.
# All treatment groups were terminated when tumors in the PBS control group reached 1500 mm^3 and tumors and spleens were harvested for analysis. The excised tumors were digested using a collagenase cocktail and single cell suspensions were stained for the presence of FR, macrophages, MDSC, and T cells and analyzed by flow cytometry. The intra-tumoral vasculature content in mice treated with PBS, folate-FITC alone, sunitinib alone, or a combination of folate-FITC and sunitinib was imaged, as shown in FIG. 6. […] Portions of each tumor were also cryopreserved for sectioning and immunohistochemistry staining. Harvested spleens were also processed into single cell suspensions and analyzed for immune cell content. The percentage of CD4+ and CD8+ cytotoxic T cell in spleens of L1210A tumor-bearing mice treated with PBS, folate-FITC alone, sunitinib alone, or a combination of folate-FITC and sunitinib was determined, as shown in FIG. 5.
# A second RTK inhibitor, axitinib, was studied in combination with folate-FITC on one of the tumor models. The combination therapy was tested in the L1210A lymphoma model following the experimental methods detailed in Example 2, using an axitinib concentration of 15 mg/Kg administered daily by oral gavage in place of sunitinib. The groups of mice were treated with PBS, folate-FITC alone (500 nmols/Kg of folate-FITC in phosphate buffered saline), axitinib alone, or a combination of folate-FITC and axitinib. Average weights of tumors and spleens of L1210A tumor-bearing mice are shown in FIGS. 17 and 18, respectively.
# Renca tumors = assay: Sunitinib/folate-FITC combination therapy in Renca tumor-bearing mice; format: in vivo, mouse (Balb/c); settings: FIG. 2
# Description: In order to test the effect of combining Sunitinib with folate-targeted immunotherapy on tumor regression in a clinically representative model, the combination therapy was evaluated in Renca tumors, a mouse syngeneic kidney cancer cell line. Renca cells were maintained in a folate deficient cell culture medium and were selected for high folate receptor (FR) expression via multiple steps of cell sorting before being used in therapeutic studies. […] In turn, folate-FITC was used as a folate-hapten conjugate in the therapeutic studies. Female Balb/c mice aged 5-6 weeks were purchased from Harlan Laboratories in Indianapolis, Ind. After allowing one week for the mice to acclimate to their environment, they were vaccinated with 35 ug KLH-FITC in 50 ug GPI-0100 as adjuvant. […]
# Several days before the third immunization, each mouse was injected subcutaneously on the left flank with 1×10^6 Renca cells in serum free medium. […] Treatment was initiated when tumors measured 50 mm^3. […] Tumor sizes were measured using digital calipers on alternating days, and tumor volumes were calculated using the equation ½ (L×W^2).
# Once it was determined that a study needed to be suspended due to tumor size, all animals in the treatment groups were euthanized within 1-2 days and their tumors and spleens harvested for freezing and analysis by flow cytometry. […]
# M109 tumors = assay: Sunitinib/folate-FITC combination therapy in the M109 lung cancer model; format: in vivo, mouse (Balb/c); settings: M109 tumor-bearing mice; FIG. 11
# Description: Solid M109 lung tumors were established on the shoulders of KLH-FITC immunized Balb/c mice (5-6 weeks old from Harlan Laboratories, Indianapolis, Ind.) by injecting them subcutaneously with 1×10^6 of syngeneic M109 cells suspended in media containing 1% female Balb/c serum. The mice were treated according to the same dosing schedule described in Examples 1 and 2. The groups of mice were treated with PBS, folate-FITC alone (500 nmols/Kg of folate-FITC in phosphate buffered saline), sunitinib alone, or a combination of folate-FITC (500 nmols/Kg of folate-FITC in phosphate buffered saline) and sunitinib. Following completion of the study and termination of treatment, the treated animals were sacrificed and tumors and spleens were harvested for analysis as described in Example 2.
SMILES,tumor volume plot: position of the line at the longest duration (PBS control topmost) (L1210A tumors; axitinib study),"average weights of spleens (L1210A tumors; axitinib study, FIG. 18)",tumor volume plot: position of the line at the longest duration (PBS control topmost) (Renca tumors),tumor volume plot: position of the line at the longest duration (PBS control second line from the bottom) (L1210A tumors; sunitinib study),"average weights of spleens (L1210A tumors; sunitinib study, FIG. 9)",tumor volume plot: position of the line at the longest duration (PBS control topmost) (M109 tumors)
CNC(=O)c1ccccc1Sc1ccc2c(/C=C/c3ccccn3)n[nH]c2c1 [axitinib],second line from the bottom,swelling of the spleens,–,–,–,–
CCN(CC)CCNC(=O)c1c(C)[nH]c(/C=C2\C(=O)Nc3ccc(F)cc32)c1C [sunitinib],–,–,second line from the bottom,second topmost line,swelling of the spleens,second topmost line
Nc1nc2ncc(CNc3ccc(C(=O)NC(CCC(=O)NCCNC(=S)Nc4ccc(-c5c6ccc(=O)cc-6oc6cc(O)ccc56)c(C(=O)O)c4)C(=O)O)cc3)nc2c(=O)[nH]1 (stereo not drawn) [folate-FITC],second topmost line,swelling of the spleens,second topmost line,topmost line,swelling of the spleens,second line from the bottom

# Reference: patent publication US20160166679A1, “METHOD OF TREATMENT USING FOLATE CONJUGATES AND TYROSINE KINASE INHIBITORS” (Purdue Research Foundation, priority 2014, published 2016)
